{
  "source": "patent US9212142B2",
  "about": "(Trustees of Tufts College, priority 2010, dated 2015)",
  "key": {"high fat-fed hamsters [1]": {"system": "high fat-fed hamsters", "test": "Plasma glucose in high fat-fed hamsters dosed 18 days", "type": "in vivo, Golden Syrian hamster", "conditions": "ARI-001 1120 and 2240 mg/kg", "description": "These animals were dosed for 18 consecutive days, while being on a HF/HS diet for a total of nearly 5 weeks. We also examined the glucose levels in the plasma of these animals. For pharmacokinetic studies, we utilized wild type mice for both single and repeated administration study. Finally, pharmacokinetic studies were corroborated by data from single and repeated administration to monkeys."}, "[2]": {"test": "Stability of ARI-001 stored at 50° C., purity by LC-MS", "type": "physicochemical", "description": "ARI-001 was synthesized as described above. Purity was determined independently before use in experiments by examination via liquid chromatography-mass spectroscopy (LC-MS). A sample of material was dissolved in water/acetonitrile and injected onto a Discovery C-18 reverse phase column. The mobile phase began as 2%:98% acetonitrile:water, which was held for three minutes, after which a linear gradient was started that ran over 6 minutes, increasing the percent of acetonitrile until a final ratio of 98%:2% acetonitrile:water was reached. This final ratio was held for 3 minutes. The major peak was identified as ARI-001.\nStability was determined by storing ARI-001 under 50° C. with no specified humidity requirement. At various time points over the course of 3 months (90 days), a small sample (<5 mg) of ARI-001 was collected for analysis using LC-MS under the same conditions as used for purity determination (vide supra)."}, "[3]": {"test": "ARI-001 concentrations in liver and adipose tissue vs plasma", "type": "in vivo, Golden Syrian hamster", "conditions": "HF/HS hamsters dosed 18 days; p<0.01", "description": "Tissue samples were harvested from hamsters in the above-described 18-day experiment to determine the concentrations of ARI-001 in both liver and adipose tissue. Briefly, liver and adipose samples were harvested at the termination of the experiment; the samples were flash frozen in liquid nitrogen and then stored at −80° C. until used for analysis. To prepare for analysis, a sample of liver was excised from the frozen mass, weighed, and homogenized with a tissue grinder followed by sonication in buffer. The solid materials were then removed by centrifugation. To prepare for LC-MS analysis, the homogenate was then treated to the same preparation technique described for plasma preparation (vide supra). A sample of adipose was excised from the frozen mass, and transferred to a mortar and pestle cooled with liquid nitrogen. During grinding, liquid nitrogen was added to ensure the sample of adipose remained solid. The ground sample was transferred to a tared tube to weigh total sample. This ground sample was extracted with methanol, and this compound-containing methanol was separated from lipid by cooling to −20° C. […]\nFIG. 8 graphs the correlation between concentrations of ARI-001 in plasma versus liver (left), and in plasma versus adipose (right). […] Pearson r was determined using all data points illustrated. P-value was determined for a 2-tailed t-test using all data points illustrated."}, "[4]": {"test": "Multiple administration pharmacokinetic study of ARI-001 in wild type mice", "type": "in vivo, C57BL/6 mice", "conditions": "996, 1493, 2240, 3360 mg/kg oral gavage daily, 30 days", "description": "Wild type C57BL/6 mice were dosed with ARI-001 in solution via oral gavage daily for 30 consecutive days. Over the course of five 24-hour periods, blood was collected, and the resultant plasma was analyzed for concentrations of ARI-001. Four doses were used: 996 mg/kg, 1493 mg/kg, 2240 mg/kg, and 3360 mg/kg. […] However, these values were time-independent, as there was no trend observed between these parameters and days of administration. See FIGS. 15A-15D and FIGS. 16A-16B."}, "high fat-fed hamsters [5]": {"system": "high fat-fed hamsters", "test": "Liver function tests (AST, ALT) in plasma of high fat-fed hamsters dosed 18 days", "type": "in vivo, Golden Syrian hamster", "description": "These animals were dosed for 18 consecutive days, while being on a HF/HS diet for a total of nearly 5 weeks. We also examined the glucose levels in the plasma of these animals. For pharmacokinetic studies, we utilized wild type mice for both single and repeated administration study. Finally, pharmacokinetic studies were corroborated by data from single and repeated administration to monkeys. […] AST and ALT were measured using commercially available kits (Bio-Quant Diagnostic Kits, San Diego, Calif.). As expected, AST and ALT values from untreated hamsters (vehicle group) were very high, as the high fat diet leads to hepatomegaly and fatty liver. This disease state is reflected in the elevated AST and ALT levels."}, "[6]": {"test": "Once daily vs twice daily dosing of ARI-001, plasma lipids in animal models", "type": "in vivo", "conditions": "ARI-001 given once daily"}, "[7]": {"test": "Pharmacokinetics of multiple administrations of ARI-001 to fasted monkeys", "type": "in vivo, Macaque monkeys", "conditions": "288 mg/kg oral gavage once per day, seven days", "description": "ARI-001 was administered to monkeys via oral gavage once per day for a total of seven days. Blood samples were collected after the first and after the last administrations to measure plasma concentrations of ARI-001."}, "[8]": {"test": "Single-dose pharmacokinetic study of ARI-001 in wild type mice (PO, IP)", "type": "in vivo, C57BL/6 mice", "conditions": "oral gavage or intraperitoneal injection", "description": "Plasma from the 19 hamsters dosed with ARI-001 in the above described 18-day study was analyzed for concentrations of ARI-001. Concentrations were determined for these samples, which were collected 24 hours after the final dose was administered. Briefly, plasma drug concentrations for the non-GLP pharmacokinetic experiments were determined by LC-MS using an Applied Biosystems 4000Qtrap spectrometer with electrospray ionization. Samples were prepared for analysis by precipitation of plasma proteins with cold methanol. HPLC of the samples was done with an Agilent Eclipse C18 column and a methanol/water gradient containing 0.1% formic acid and 5 mM ammonium acetate. ARI-001 was detected using multiple reaction monitoring (MRM) in the positive ion mode. For quantitation, a standard curve was measured by addition of known amounts of ARI-001 to plasma from untreated animals and preparing in a manner identical to the samples from treated animals. […] Pearson r values were determined using all data points, as was the two-tailed P-value for the data set.\nWild type C57BL/6 mice were dosed with a single administration of ARI-001 in solution either via oral gavage (PO) or via intraperitoneal injection (IP). Blood samples were then collected at various time points over a 24-hour period; plasma was then analyzed for concentrations of ARI-001 as described earlier. […]"}, "[9]": {"conditions": "niacin 1500 mg (roughly equimolar dose); niacin was no arm of the trial; cited from earlier work"}},
  "data": [
    {"smiles": "O=C(O)c1ccc(CCN2CCOCC2)nc1", "note": "[ARI-001]", "values": [
      {"measurement": "glucose levels in comparison to the vehicle cohort", "setting": "high fat-fed hamsters [1]", "result": "neither dose of ARI-001 produced any significant change"},
      {"measurement": "purity of ARI-001 on storage", "setting": "[2]; after 90 days", "result": 95.9, "unit": "%"},
      {"measurement": "purity of ARI-001 on storage", "setting": "[2]; unregulated humidity, 65 days", "result": 98.9, "unit": "%"},
      {"measurement": "correlation between concentrations of ARI-001 in plasma versus adipose", "setting": "[3]", "result": "highly statistically significant"},
      {"measurement": "correlation between concentrations of ARI-001 in plasma versus liver", "setting": "[3]", "result": "highly statistically significant"},
      {"measurement": "Cmax levels and total 24-hour exposure (AUC) vs days of administration", "setting": "[4]", "result": "time-independent"},
      {"measurement": "Cmax levels and total 24-hour exposure (AUC) vs dose", "setting": "[4]", "result": "dose-dependent"},
      {"measurement": "AST in plasma vs vehicle", "setting": "high fat-fed hamsters [5]; ARI-001 2240 mg/kg", "result": "drastically reduced"},
      {"measurement": "ALT in plasma vs vehicle", "setting": "high fat-fed hamsters [5]; ARI-001 1120 and 2240 mg/kg, dose-dependent", "result": "similarly reduced"},
      {"measurement": "changes in plasma lipids, once daily vs same total dose twice daily", "setting": "[6]", "result": "greater than or equal to the lipid altering effects observed with the same total dose of ARI-001 given twice daily"},
      {"measurement": "Cmax value day 7 versus day 1", "setting": "[7]", "result": "higher on day 7 than on day 1"},
      {"measurement": "concentrations 24 hours after the first or the last doses", "setting": "[7]", "result": "essentially identical"},
      {"measurement": "plasma concentrations on day 1 versus day 7", "setting": "[7]", "result": "very little difference"},
      {"measurement": "remaining plasma concentration of ARI-001 at the 24 hour timepoint", "setting": "[8]", "result": "undetectable"}
    ]},
    {"smiles": "O=C(O)c1cccnc1", "note": "[Niacin, nicotinic acid]", "values": [
      {"measurement": "Cmax", "setting": "[9]", "result": "about 30,000 ng/mL"}
    ]}
  ]
}
